Source: US20140296170A1, “PHARMACEUTICAL COMPOSITION FOR PREVENTION OR TREATMENT OF BONE DISEASES COMPRISING SPINASTEROL GLUCOSIDE DERIVATIVE” (Lifetree Biotech Co., Ltd., priority 2013, published 2014)

What was measured:
[1] = tested on: collagen-induced arthritis in DBA1/J mice; assay: Collagen-induced arthritis model in DBA1/J mice; format: in vivo; conditions: FIG. 1
[2] = tested on: cartilage of SD rats (osteoblast defected (OD) models); assay: Cartilage regeneration in osteoblast defected (OD) models; format: in vivo; conditions: 1 mg/kg orally once every two days for 4 weeks
Protocol: The cartilage regeneration activity of spinasterol glucoside derivatives were evaluated in osteoblast defected (OD) models which were widely used in study on the regeneration of degenerative articular cartilage. The cartilage of SD rats, at least 9 weeks of age, was destroyed by a […] drill, followed by suturing the muscle and lipid tissues so as to allow them to go about normal daily life. Then, 3-o-β-D-glucopyranosyl-spinasterol dissolved in distilled water was orally administered at a dose of 1 mg/kg once every two days for 4 weeks. Afterwards, the animals were sacrificed, and opened around the knee to take articular cartilage tissues, followed by decalcification for 4 weeks. The cartilage tissues thus softened were paraffinized, and dyed with Safran O solution to visualize the regeneration of the cartilage.

SMILES: CC[C@H](/C=C/[C@@H](C)[C@H]1CC[C@H]2C3=CC[C@H]4C[C@@H](O[C@@H]5O[C@H](CO)[C@@H](O)[C@H](O)[C@H]5O)CC[C@]4(C)[C@H]3CC[C@]12C)C(C)C [3-o-β-D-glucopyranosyl-spinasterol]
- degree of collagen-induced arthritis (clinical severity by paw swelling, verified by micro-CT morphometry) ([1]; CII/CFA immunization, 10 μM/kg of weight three times a week for 28 days, observed 42 days later, compared to the positive control (CIA)): reduced in the degree of collagen-induced arthritis
- regeneration of cartilage at the worn joint ([1]; collagen-induced arthritis, 10 μM/kg three times a week for 28 days): showed regeneration of cartilage at the worn joint
- levels of chondrocytes ([2]; SD rats OD model): greatly increased levels
- levels of mast cells ([2]; SD rats OD model): greatly increased levels
- levels of mucin ([2]; SD rats OD model): greatly increased levels
- regeneration of cartilage tissues (Safran O staining) ([2]; SD rats, cartilage destroyed by drill, compared to the control (b), FIG. 2): significant regeneration of cartilage tissues
